Laboratory results published in patent US5622962A, “5α-reductase inhibitors” (priority 1995, dated 1997).
Like-named read-outs stand apart in the source and are kept apart here.

Experiments:
[1] = biological target: T1, Type I 5α-Reductase from Human Scalp (Homo sapiens, UniProt P18405); test: Human Type I 5α-reductase assay (conversion of [3H]-testosterone to 5α-reduced metabolites); format: biochemical
T1 construct: Scalp punch biopsies from graft recipient sites were obtained from human hair transplant procedures; from tissue; host or cells: human scalp punch biopsies (hair transplant graft recipient sites), homogenate, 100,000×g pellet
T1 sequence (P18405 1-259): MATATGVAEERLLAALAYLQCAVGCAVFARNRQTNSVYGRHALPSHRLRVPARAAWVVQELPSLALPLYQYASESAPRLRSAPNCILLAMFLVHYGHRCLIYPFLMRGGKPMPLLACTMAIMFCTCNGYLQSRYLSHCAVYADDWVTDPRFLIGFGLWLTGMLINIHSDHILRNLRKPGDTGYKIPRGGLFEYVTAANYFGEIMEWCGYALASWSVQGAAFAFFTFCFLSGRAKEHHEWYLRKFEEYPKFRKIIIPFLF

[2] = biological target: T2, Type II 5α-Reductase from Human Prostate (Homo sapiens, UniProt P31213); test: Human Type II 5α-reductase assay (conversion of [3H]-testosterone to 5α-reduced metabolites); format: biochemical
T2 construct: The same procedure as above was used for preparations using tissue from prostate surgery; from tissue; host or cells: human prostate tissue from surgery, homogenate, 100,000×g pellet
T2 sequence (P31213 1-254): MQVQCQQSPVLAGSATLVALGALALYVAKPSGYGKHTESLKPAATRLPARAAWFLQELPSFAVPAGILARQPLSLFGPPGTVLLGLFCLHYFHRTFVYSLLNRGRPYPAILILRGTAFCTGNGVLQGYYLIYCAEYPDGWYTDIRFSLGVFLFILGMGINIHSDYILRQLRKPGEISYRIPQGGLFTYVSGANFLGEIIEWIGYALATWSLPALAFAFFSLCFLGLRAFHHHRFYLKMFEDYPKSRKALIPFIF

[3] = pH 7.5, 0.3 μM, 50 nM [3H]-testosterone, pH 7.5, 25°, 180 min, compared to control reaction mixtures, read-out: percent inhibition of Type I AR
[4] = pH 5.5, 0.3 μM, sodium acetate pH 5.5, 25°, 30 min, compared to control reaction mixtures, read-out: percent inhibition of Type II AR

Row | Compound | inhibition at 0.3 µM [1, 3] | inhibition at 0.3 µM [2, 4] | inhibition at 0.3 µM ([1]; pH 7.5, read-out: percent inhibition of Type I AR) | inhibition at 0.3 µM ([2]; pH 5.5, read-out: percent inhibition of Type II AR)
1 | Cc1ccccc1Sc1ccc2c(c1)CC[C@H]1NC(=O)CC[C@]21C [Example 9, (+)-(4aR)-(10bR)-8-(2-methylphenylthio)-10b-methyl-1,2,3,4,4a,5,6,10b-octahydrobenzo[f]quinolin-3-one] | 3% | 31% |  | 
2 | C[C@]12CCC(=O)N[C@@H]1CCc1cc(Sc3cccc4ccccc34)ccc12 [Example 11, (+)-(4aR)-(10bR)-8-(1-naphthylthio)-10b-methyl-1,2,3,4,4a,5,6,10b-octahydrobenzo[f]quinolin-3-one] | 87% | 40% |  | 
3 | COc1ccccc1Sc1ccc2c(c1)CC[C@H]1NC(=O)CC[C@]21C [Example 12, (+)-(4aR)-(10bR)-8-(2-methoxyphenylthio)-10b-methyl-1,2,3,4,4a,5,6,10b-octahydrobenzo[f]quinolin-3-one] | 16% | 22% |  | 
4 | COc1cccc(Sc2ccc3c(c2)CC[C@H]2NC(=O)CC[C@]32C)c1 [Example 15, (4aR)-(10bR)-8-(3-methoxyphenylthio)-10b-methyl-1,2,3,4,4a,5,6,10b-octahydrobenzo[f]quinolin-3-one] | 23% | 39% |  | 
5 | C[C@]12CCC(=O)N[C@@H]1CCc1cc(Sc3ccc4ccccc4n3)ccc12 [Example 19, (4aR)-(10bR)-8-(2-quinolinylthio)-10b-methyl-1,2,3,4,4a,5,6,10b-octahydrobenzo[f]quinolin-3-one] | 59% | 56% |  | 
6 | C[C@]12CCC(=O)N[C@@H]1CCc1cc(Sc3cccc4cccnc34)ccc12 [Example 20, (+)-(4aR)-(10bR)-8-(8-quinolinylthio)-10b-methyl-1,2,3,4,4a,5,6,10b-octahydrobenzo[f]quinolin-3-one] | 22% | 48% |  | 
7 | C[C@]12CCC(=O)N[C@@H]1CCc1cc(Sc3ccccn3)ccc12 [Example 21, (4aR)-(10bR)-8-(2-pyridinylthio)-10b-methyl-1,2,3,4,4a,5,6,10b-octahydrobenzo[f]quinolin-3-one] | 27% | 42% |  | 
8 | C[C@]12CCC(=O)N[C@@H]1CCc1cc(SCc3ccccc3)ccc12 [Example 23, (4aR)-(10bR)-8-benzylthio-10b-methyl-1,2,3,4,4a,5,6,10b-octahydrobenzo[f]quinolin-3-one] | 59% | 31% |  | 
9 | CN1C(=O)CC[C@]2(C)c3ccc(-c4ccc(O)c(F)c4)cc3CC[C@@H]12 [Example 28, (+)-(4aR)-(10bR)-4-methyl-8-(3-fluoro-4-hydroxyphenyl)-10b-methyl-1,2,3,4,4a,5,6,10b-octahydrobenzo[f]quinolin-3-one] | 65% | 36% |  | 
10 | CN1C(=O)CC[C@]2(C)c3ccc(-c4ccc5c(c4)OCCO5)cc3CC[C@@H]12 [Example 29, (+)-(4aR)-(10bR)-4-methyl-8-(3,4-ethylenedioxyphenyl)-10b-methyl-1,2,3,4,4a,5,6,10b-octahydrobenzo[f]quinolin-3-one] | 78% | 26% |  | 
11 | CN1C(=O)CC[C@]2(C)c3ccc(-c4cc(C(C)(C)C)c(O)c(C(C)(C)C)c4)cc3CC[C@@H]12 [Example 30, (+)-(4aR)-(10bR)-4-methyl-8-(3,5-di [t-butyl]-4-hydroxyphenyl)-10b-methyl-1,2,3,4,4a,5,6,10b-octahydrobenzo[f]quinolin-3-one] | 19% | 21% |  | 
12 | CN1C(=O)CC[C@]2(C)c3ccc(-c4ccc(F)cc4C(F)(F)F)cc3CC[C@@H]12 [Example 31, (+)-(4aR)-(10bR)-4-methyl-8-(2-trifluoromethyl-4-fluorophenyl)-10b-methyl-1,2,3,4,4a,5,6,10b-octahydrobenzo[f]-quinolin-3-one] |  |  | 84% | 22%
13 | CN1C(=O)CC[C@]2(C)c3ccc(-c4cc(C(F)(F)F)ccc4Cl)cc3CC[C@@H]12 [Example 33, (+)-(4aR)-(10bR)-4-methyl-8-(2-chloro-5-trifluoromethylphenyl)-10b-methyl-1,2,3,4,4a,5,6,10b-octahydrobenzo[f]-quinolin-3-one] | 55% | 40% |  | 
14 | CN1C(=O)CC[C@]2(C)c3ccc(-c4cccc(C(=O)NC(C)(C)C)c4)cc3CC[C@@H]12 [Example 34, (+)-(4aR)-(10bR)-4-methyl-8-(3-t-butylcarboxamidophenyl)-10b-methyl-1,2,3,4,4a,5,6,10b-octahydrobenzo[f]quinolin-3-one] | 13% | 5% |  | 
15 | CCN(CC)C(=O)c1c(-c2ccc3c(c2)CC[C@H]2N(C)C(=O)CC[C@]32C)ccc2ccccc12 [Example 35, (+)-(4aR)-(10bR)-4-methyl-8-(2-[1-diethylcarboxamido]naphthyl)-10b-methyl-1,2,3,4,4a,5,6,10b-octahydrobenzo[f]-quinolin-3-one] | 17% | 27% |  | 
16 | COc1cc(-c2ccc3c(c2)CC[C@H]2N(C)C(=O)CC[C@]32C)ccc1O [Example 36, (+)-(4aR)-(10bR)-4-methyl-8-(4-hydroxy-3-methoxyphenyl)-10b-methyl-1,2,3,4,4a,5,6,10b-octahydrobenzo[f]quinolin-3-one] | 41% | 52% |  | 
17 | CN1C(=O)CC[C@]2(C)c3ccc(-c4ccc(NC(=O)C(C)(C)C)cc4)cc3CC[C@@H]12 [Example 37, (+)-(4aR)-(10bR)-4-methyl-8-(4-t-butylcarbonylaminophenyl)-10b-methyl-1,2,3,4,4a,5,6,10b-octahydrobenzo[f]quinolin-3-one] | 72% | 58% |  | 

Second part, led by results:

Row | inhibition at 0.3 µM [1, 3] | inhibition at 0.3 µM [2, 4] | Compound | inhibition at 0.3 µM ([1]; pH 7.5, read-out: percent inhibition of Type I AR) | inhibition at 0.3 µM ([2]; pH 5.5, read-out: percent inhibition of Type II AR)
18 | 22% | 59% | C[C@]12CCC(=O)N[C@@H]1CCc1cc(Sc3cccc(Cl)c3)ccc12 [Example 8, (+)-(4aR)-(10bR)-8-(3-chlorophenylthio)-10b-methyl-1,2,3,4,4a,5,6,10b-octahydrobenzo[f]quinolin-3-one] |  | 
19 | 22% | 40% | Cc1cccc(Sc2ccc3c(c2)CC[C@H]2NC(=O)CC[C@]32C)c1 [Example 10, (+)-(4aR)-(10bR)-8-(3-methylphenylthio)-10b-methyl-1,2,3,4,4a,5,6,10b-octahydrobenzo[f]quinolin-3-one] |  | 
20 | 11% | 22% | COc1ccc(Sc2ccc3c(c2)CC[C@H]2NC(=O)CC[C@]32C)cc1 [Example 13, (+)-(4aR)-(10bR)-8-(4-methoxyphenylthio)-10b-methyl-1,2,3,4,4a,5,6,10b-octahydrobenzo[f]quinolin-3-one] |  | 
21 | 37% | 25% | C[C@]12CCC(=O)N[C@@H]1CCc1cc(Sc3ccc(F)cc3)ccc12 [Example 14, (+)-(4aR)-(10bR)-8-(4-fluorophenylthio)-10b-methyl-1,2,3,4,4a,5,6,10b-octahydrobenzo[f]quinolin-3-one] |  | 
22 | 14% | 28% | C[C@]12CCC(=O)N[C@@H]1CCc1cc(Sc3cccc(F)c3)ccc12 [Example 16, (+)-(4aR)-(10bR)-8-(3-fluorophenylthio)-10b-methyl-1,2,3,4,4a,5,6,10b-octahydrobenzo[f]quinolin-3-one] |  | 
23 | 29% | 19% | C[C@]12CCC(=O)N[C@@H]1CCc1cc(Sc3ccccc3F)ccc12 [Example 17, (+)-(4aR)-(10bR)-8-(2-fluorophenylthio)-10b-methyl-1,2,3,4,4a,5,6,10b-octahydrobenzo[f]quinolin-3-one] |  | 
24 | 7% | 15% | C[C@]12CCC(=O)N[C@@H]1CCc1cc(Sc3cnc4ccccc4c3)ccc12 [Example 18, (4aR)-(10bR)-8-(3-quinolinylthio)-10b-methyl-1,2,3,4,4a,5,6,10b-octahydrobenzo[f]quinolin-3-one] |  | 
25 | 88% | 28% | CN1C(=O)CC[C@]2(C)c3ccc(-c4ccc(Cl)c(C(F)(F)F)c4)cc3CC[C@@H]12 [Example 24, (+)-(4aR)-(10bR)-4-methyl-8-(4-chloro-3-trifluoromethylphenyl)-10b-methyl-1,2,3,4,4a,5,6,10b-octahydrobenzo[f]-quinolin-3-one] |  | 
26 | 83% | 31% | CN1C(=O)CC[C@]2(C)c3ccc(-c4ccc(O)c(Cl)c4)cc3CC[C@@H]12 [Example 25, (+)-(4aR)-(10bR)-4-methyl-8-(3-chloro-4-hydroxyphenyl)-10b-methyl-1,2,3,4,4a,5,6,10b-octahydrobenzo[f]quinolin-3-one] |  | 
27 | 71% | 18% | CN1C(=O)CC[C@]2(C)c3ccc(-c4ccc(NC(=O)C(C)(C)C)c5ccccc45)cc3CC[C@@H]12 [Example 32, (+)-(4aR)-(10bR)-4-methyl-8-(1-[4-t-butylcarbonylamino]naphthyl)-10b-methyl-1,2,3,4,4a,5,6,10b-octahydrobenzo[f]-quinolin-3-one] |  | 
